Data from US20240302379A1, “METHODS FOR IDENTIFYING AND MONITORING INTERACTIONS OF PROTEIN WITH LIGAND” (Agency for Science, Technology and Research, priority 2020, published 2024).
“Also recorded” adds a separate entry of the source.

Experiments:
DHFR-HiBiT = target: T1, DHFR-HiBiT (Homo sapiens, UniProt P00374); assay: UCEP-Screen in HEK293 DHFR-HiBiT reporter cells (bioluminescence); format: binding; settings: 20 μM, 10 minutes
T1 construct: expressed in transfected cells; host or cells: Flp-In T-Rex HEK293
T1 sequence (P00374 1-187): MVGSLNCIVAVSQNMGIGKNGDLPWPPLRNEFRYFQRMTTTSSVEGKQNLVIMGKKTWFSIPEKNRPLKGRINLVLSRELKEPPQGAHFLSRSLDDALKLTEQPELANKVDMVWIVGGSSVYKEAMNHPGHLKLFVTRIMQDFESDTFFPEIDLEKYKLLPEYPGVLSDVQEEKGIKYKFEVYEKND
Procedure: UCEP conditions such as denaturant concentration and dilution factor should be optimized for each target before performing any HTS. Here, Flp-In T-Rex cells were used for assay development. Cells were seeded into the 96-well clear bottom white microplate in growth medium and the expression of HiBiT-tagged protein was induced with tetracycline. Cells are treated with chemical of interest for specific duration, before incubation in PBS containing different concentrations of urea. Urea was then diluted with PBS. HiBiT lytic detection buffer containing LgBiT and substrate was then added. Bioluminescence was then measured.

K562 living cells = assay: UCEP-ID MR experiment (proteome-wide target deconvolution by quantitative LC-MS/MS); settings: K562, 10 μM, 10 minutes
HER2-HiBIT = target: T2, HER2-HiBIT (Homo sapiens, UniProt P04626); assay: UCEP in HER2-HiBIT reporter cells with 1% CHAPS (bioluminescence); format: binding; settings: 3M to 5M urea
T2 construct: expressed in transfected cells; host or cells: reporter cells
Excerpt: In the Flp-In T-Rex system, modified pENTR1A plasmids, entry vectors, are used to clone protein of interest. pENTR1A plasmids are modified to include thirty-three nucleotide sequences of HiBiT for tagging protein of interest at either N- or C terminus. A HiBiT-tagged protein of interest is transferred to one of gateway destination vectors, pFRT/TO/DEST or pEF5/FRT/V5-DEST, via gateway LR reaction. Flp-In T-Rex HEK293 cells are transfected with the final destination vector that include HiBiT-tagged gene of interest and pOG44 vector expressing Flp recombinase. Cells are selected with Hygromycin and Blasticidin to remove untransformed cells. In the CRISPR system, the ribonucleoprotein complex including Cas9, crRNA, tracrRNA is formed in vitro. Cells are electroporated to deliver the Cas9 ribonucleoprotein complex along with a single-stranded donor oligonucleotide. Next day, cells are sorted as a single cell into a transparent 96-well tissue culture microplate and incubated until they became confluent.
UCEP conditions such as denaturant concentration and dilution factor should be optimized for each target before performing any HTS. Here, Flp-In T-Rex cells were used for assay development. Cells were seeded into the 96-well clear bottom white microplate in growth medium and the expression of HiBiT-tagged protein was induced with tetracycline. […] Bioluminescence was then measured. […]

T2 sequence (P04626 23-1255): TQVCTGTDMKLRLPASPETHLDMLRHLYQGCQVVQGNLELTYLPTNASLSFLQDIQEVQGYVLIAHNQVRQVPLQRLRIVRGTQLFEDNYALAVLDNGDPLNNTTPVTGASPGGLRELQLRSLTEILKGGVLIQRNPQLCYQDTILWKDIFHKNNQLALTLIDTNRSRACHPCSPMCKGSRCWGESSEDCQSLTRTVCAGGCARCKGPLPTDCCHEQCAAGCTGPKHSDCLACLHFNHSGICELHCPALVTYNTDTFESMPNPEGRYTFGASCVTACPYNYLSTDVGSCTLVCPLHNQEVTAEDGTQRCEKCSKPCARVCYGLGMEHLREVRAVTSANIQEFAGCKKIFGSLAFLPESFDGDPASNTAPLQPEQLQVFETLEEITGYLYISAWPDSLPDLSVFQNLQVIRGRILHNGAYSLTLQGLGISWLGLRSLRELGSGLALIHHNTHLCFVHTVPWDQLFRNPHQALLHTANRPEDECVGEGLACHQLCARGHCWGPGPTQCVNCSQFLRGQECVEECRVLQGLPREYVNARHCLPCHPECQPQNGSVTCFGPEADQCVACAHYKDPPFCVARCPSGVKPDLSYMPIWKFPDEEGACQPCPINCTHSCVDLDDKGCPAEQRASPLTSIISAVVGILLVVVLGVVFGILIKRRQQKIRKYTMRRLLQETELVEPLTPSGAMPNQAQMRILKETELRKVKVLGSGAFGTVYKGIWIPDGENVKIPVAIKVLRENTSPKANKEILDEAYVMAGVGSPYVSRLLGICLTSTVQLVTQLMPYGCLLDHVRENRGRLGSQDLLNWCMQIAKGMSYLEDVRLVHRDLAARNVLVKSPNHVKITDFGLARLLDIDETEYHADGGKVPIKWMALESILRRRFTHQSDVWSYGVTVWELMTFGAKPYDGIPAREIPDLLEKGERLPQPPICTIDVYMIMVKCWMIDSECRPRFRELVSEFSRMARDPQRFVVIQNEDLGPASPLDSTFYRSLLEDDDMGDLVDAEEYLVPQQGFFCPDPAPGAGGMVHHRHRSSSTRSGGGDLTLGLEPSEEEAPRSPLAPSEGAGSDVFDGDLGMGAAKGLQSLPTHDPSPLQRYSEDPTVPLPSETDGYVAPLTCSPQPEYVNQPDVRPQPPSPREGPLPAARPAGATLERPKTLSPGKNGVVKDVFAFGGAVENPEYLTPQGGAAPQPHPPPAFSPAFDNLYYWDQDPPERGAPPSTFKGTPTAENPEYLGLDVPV

| SMILES | DHFR-HiBiT protein stabilization upon UCEP (DHFR-HiBiT) | also measured |
| --- | --- | --- |
| CNC(=O)c1ccc(N2C(=S)N(c3ccc(C#N)c(C(F)(F)F)c3)C(=O)C2(C)C)cc1F [Enzalutamide] | did not significantly change | – |
| CN(Cc1cnc2nc(N)nc(N)c2n1)c1ccc(C(=O)N[C@@H](CCC(=O)O)C(=O)O)cc1 [MTX, methotrexate] | – | Binding targets identified by UCEP-ID (K562 living cells): DHFR |
| CN[C@@H]1C[C@H]2O[C@@](C)([C@@H]1OC)n1c3ccccc3c3c4c(c5c6ccccc6n2c5c31)C(=O)NC4 [Staurosporine] | did not significantly change | – |
| Cc1cc(Nc2ncnc3ccc(NC4=NC(C)(C)CO4)cc23)ccc1Oc1ccn2ncnc2c1 [Tucatinib] | – | Stabilization of HER2-HiBIT (fold change of bioluminescence vs control) (HER2-HiBIT): maximum stabilization of HER2 at 3M urea; also recorded: increased stability |
